{"source": "patent US6017958A", "about": "“Method of treating malignant tumors with thyroxine analogues having no significant hormonal activity” (Octamer, Inc., priority 1997, dated 2000)", "key": {"[1]": {"system": "protein phosphatase 2A (DU-145)", "assay": "Phosphatase activity, DU-145", "type": "cell-based, human", "protocol": "Compounds 1-13 were tested for protein phosphatase 2A activation in malignant tumor cell cultures in vitro according to the protocol described in Bauer et al., 1996, \"Modification of Growth Related Enzymatic Pathways and Apparent Loss of Tumorigenicity of a Ras-Transformed Bovine Endothelial Cell Line by Treatment with 5-Iodo-6-Amino-1,2-Benzopyrone (INH2 BP),\" International J. of Oncology 8:239-252. All other compounds were ineffective."}, "[2]": {"system": "E-ras transformed bovine endothelial cells", "assay": "Morphology of E-ras cells", "type": "cell-based", "protocol": "E-ras transformed bovine endothelial cells (Bauer et al., 1996, Intl. J. Oncology 8:239-252) were exposed to 10 μM DIME for […]. The DIME-treated cells (10^5 or 10^6 cells/100 μL) were injected subcutaneously into nude mice and tumor progression followed for 25 days.\nMicroscopic morphology of E-ras cells was examined by techniques reported earlier, Mendeleyev et al., 1997, \"Structural Specificity and Tumoricidal Action of Methyl-3,5-Diiodo-4-(4'- Methoxyphenoxy) Benzoate (DIME),\" Intl. J. Oncol.,in press; Bauer et al., 1996, \"Modification of Growth Related Enzymatic Pathways and Apparent Loss of Tumorigenicity of a ras-Transformed Bovine Endothelial Cell Line\" by Treatment With 5-iodo-6-amino-1,2-benzopyrone (INH BP)."}, "MDA-MB-231 cells": {"system": "MDA-MB-231 cells", "assay": "Chromosome analysis by in situ hybridization", "type": "cell-based, human", "details": "1 μM", "protocol": "The MDA-MB-231 cell line was obtained from ATCC (Rockville, Md., USA) and cells were cultured in T-75 flasks at 37° C. in Minimum Essential Medium-alpha, supplemented with 10% FCS. In controls, not receiving DIME, 0.1 μg/ml colcemid was added to cultures for 4 hrs prior to the collection of metaphase-blocked cells and preparation of cell spreads. […] Cells (10^7) were isolated from T-75 trypsinization for 5 min with 0.025% trypsin, and sedimented by centrifugation, resuspended and kept in 10 ml of 75 mM KC1 at 37° C. for 10 min, resedimented, and fixed in 10 ml methanol-acetic acid, with four successive changes of methanol-acetic acid. An aliquot of the final cell suspension (100 μl) was dropped on ethanol-cleaned slides and air-dried.\nHuman chromosome-specific probes were produced by ONCOR (Gaithersburg, Md., USA). Hybridization was accomplished by a modification of the procedure described by Pinkel et al., 1986, \"Cytogentic Analysis Using Quantitative High-Sensitivity Fluorescence Hybridization,\" Proc. Natl. Acad. Sci. U.S.A. 83:2934-2938. The slide-mounted cells were treated with pepsin (20 μg/ml in 0.01 N HCl) at 37° C. for 10 min and then dehydrated in a 70%, 85% and 100% ethanol series, then DNA was denatured by immersion in 70% formamide, followed by 2X standard saline citrate (IX SSC is […], 0.015 M sodium citrate, pH 7.0) for 2 min. at 70° C., and dehydrated in ethanol as described above. The hybridization mixture in a 10 μl total volume consisted of 50% formamide, 2X SSC, 10% dextran sulfate, 0.5 μg herring sperm DNA, and 1-5 μg of proteinase K-treated human placental DNA. Both herring sperm DNA and human placental DNA were previously sonicated to 200-600 bp fragments, and -40 ng of digoxigeninylated probe DNA (denatured at 70° C. for 5 min) added, and incubated at 37° C. for 1 hr. This mixture was placed on slides containing the fixed cells, sealed under a coverslip, and incubated at 37° C. for 2 to 3 days. […] The slides were viewed in a Zeiss fluorescence microscope equipped with a multiple band pass filter (Chroma Technology, Brattleboro, Vt., USA) to determine the number of FISH signals in each nucleus."}, "[3]": {"system": "microtubule protein (MTP)", "assay": "Microtubule protein (MTP) polymerization optical test", "type": "biochemical, bovine or rabbit", "protocol": "Preparation of MTP and an optical test for polymerization was adopted from published methods, Gaskin, et al., 1974, \"Turbidimetric studies of the in vitro assembly and disassembly of porcine neurotubules\", J. Mol. Biol. 89:737-758; Tiwari, et al., 1993, \"A pH and temperature-dependent cycling method that doubles the yield of microtubule protein\", Anal. Biochem. 215:96-103. Bovine or rabbit brain was homogenized in an equal volume of ice cold buffer containing 100 mM Pipes/K^+ (pH 7.4), 4 mM EGTA, 1 mM MgCl2, 0.5 mM DTT and 0.1 mM PMSF, and centrifuged at 39,000 g for 1 hour at 4° C. To the supernatant, DMSO (8% final concentration) and GTP (1 mM final concentration) were added, followed by incubation at 37° C. for 30 minutes. Microtubules were pelleted at 100,000 g at 37° C for 30 minutes. The pellets were incubated on ice for 15 minutes, followed by resuspension in ice cold PEM buffer (100 mM Pipes/K+(pH 6.9), 1 mM EGTA, 1 mM MgCl2). This warm polymerization and cold depolymerization cycle was repeated once more and the cold, resuspended monomeric MTP (8-10 mg/ml protein) was used for the optical test for polymerization kinetics. Both rabbit or bovine brain yielded identical MTP preparations.\nThe composition of the optical test is described in the legends of Figures and Table 12. The polymerization reaction was started by the addition of 100 μl of MTP solution (equivalent to 0.8-1.0 mg protein) and initial linear rates of increase in absorbance at 350 nm followed and recorded at 37° C. (see FIG. 1) in a Perkin-Elmer 552 double beam spectrophotometer, equipped with a thermostatically controlled cuvette holder.\n[…] Microtubule assembly at 37° C. was monitored at λ=350 nm and initial velocities were calculated as mA350 /min. […] The values are averages of duplicate assays."}, "[4]": {"system": "mouse pituitary thyrotropic tumors / non-malignant mouse pituitary adenoma", "details": "cited from earlier work"}}}
{"smiles": "COC(=O)c1cc(I)c(Oc2ccc(OC)cc2)c(I)c1", "note": "[Compound 1, Methyl 3,5-diiodo-4-(4'-methoxyphenoxy)benzoate]", "values": [{"measurement": "Phosphatase Activity", "setting": "[1]; 50 μM DIME, untreated 12.1 ± 3", "result": "19.1 ± 2.5", "unit": "fmol Pi/mg protein × min."}, {"measurement": "activation of protein phosphatase 2A, fold", "setting": "[1]; 50 μM, DU-145 cells", "result": "at least two-fold"}, {"measurement": "cell morphology", "setting": "[2]; 4 μM, 18-24 hrs, E-ras 20 cells", "result": "tumor cells enlarged and, as especially visible at 300-fold magnification, numerous micronuclei appeared"}, {"measurement": "micronucleation", "setting": "[2]; 10 μM, 3 days", "result": "induced extensive micronucleation"}, {"measurement": "effect on chromosomes (in situ hybridization)", "setting": "MDA-MB-231 cells; 18 hrs", "result": "no detectable effect"}, {"measurement": "chromosome breakage", "setting": "MDA-MB-231 cells; 5 days", "result": "No evidence for chromosome breakage"}, {"measurement": "chromosome-19 signals", "setting": "MDA-MB-231 cells; 5 days, some cells", "result": "about 40 chromosome-19 signals"}, {"measurement": "chromosomes per cell", "setting": "MDA-MB-231 cells; 5 days, some cells", "result": "over 100 chromosomes"}, {"measurement": "decrease of Vmax", "setting": "[3]; 1 μM DIME", "result": "~50", "unit": "%"}, {"measurement": "type of inhibition of MTP polymerization", "setting": "[3]; 1 μM DIME, versus GTP", "result": "\"mixed\" type inhibition"}, {"measurement": "Km", "setting": "[3]; 1 μM DIME, 6.7 μM without drug, read-out: km GTP", "result": 14, "unit": "µM"}, {"measurement": "Percent inhibition of initial velocity of microtubule assembly", "setting": "[3]; 10 μM, 1 mM GTP, 37° C.", "result": 93, "unit": "%"}, {"measurement": "inhibition of GTP-dependent polymerization of MTP", "setting": "[3]; 1 to 5 μM", "result": "inhibits the GTP-dependent polymerization of MTP"}, {"measurement": "growth of mouse pituitary tumor", "setting": "[4]", "result": "no inhibitory activity"}]}
